Measurements taken from patent publication US20250332125A1, “TREATMENT OF MODERATE AND SEVERE GASTROPARESIS” (priority 2016, published 2025).

Assays:
Assay type in all cases: in vivo, human
[1] = Tardive dyskinesia reports over the clinical development program; settings: 1,311 exposed healthy volunteers and patients over the clinical development program
[2] = test system: adult female subjects with diabetic gastroparesis; assay: Phase 3 multicenter, randomized, double-blind, placebo-controlled study of metoclopramide nasal spray: symptom efficacy (GSA scores); parameters: Estimated Mean Change from Baseline in Mean Daily GSA Total Scores (LSMean from ANCOVA) / Mean Change from Baseline in Mean Daily Nausea Score (LSMean from ANCOVA): scale not given here; settings: for Mean Change from Baseline in Mean Daily Nausea Score (LSMean from ANCOVA) / Mean Change from Baseline in Mean Daily Upper Abdominal Pain Score (LSMean from ANCOVA): ITT Population with Moderate to Severe Symptoms; for Estimated Mean Change from Baseline in Mean Daily GSA Total Scores (LSMean from ANCOVA): Baseline GSA >2.7 (BOCF)
Description: A multicenter, randomized, double-blind, placebo-controlled clinical study of intranasal metoclopramide (“IN MCP”) in female diabetic gastroparesis patients was carried out. The study explored the use of IN MCP for the relief of symptoms associated with acute and recurrent diabetic gastroparesis in adult women. […] The study was a U.S. multicenter, randomized, double-blind, placebo-controlled, parallel-group study of the efficacy and safety of IN MCP compared to placebo in adult female subjects with diabetic gastroparesis. Diabetic women with clinical symptoms attributed to diabetic gastroparesis, and documentation of delayed gastric emptying who met the protocol-specified entry criteria were randomized 1:1 in a parallel-group design to IN MCP (10 mg metoclopramide) or placebo administered as a single nasal spray four times daily; 30 minutes before meals and at bedtime for a total of four weeks. Eligible patients received a dose of IN MCP or placebo 30 minutes before meals and at bedtime daily. A total of 205 female gastroparesis patients were enrolled. Of the total, nearly half had been identified as having moderate to severe gastroparesis. […] Diabetic women with clinical symptoms attributed to diabetic gastroparesis and documentation of delayed gastric emptying who met the protocol-specified entry criteria were randomized to Metoclopramide Nasal Spray 10 mg or placebo administered as a single intranasal spray four (4) times daily; 30 minutes before meals and at bedtime for a total of four (4) weeks. Inclusion criteria included prior diagnosis of Type 1 or Type 2 diabetes, and diagnosis of diabetic gastroparesis with delayed gastric emptying. […]

[3] = Phase 3 study of metoclopramide nasal spray: safety, treatment-emergent adverse events
Description: The study was a U.S. multicenter, randomized, double-blind, placebo-controlled, parallel-group study of the efficacy and safety of IN MCP compared to placebo in adult female subjects with diabetic gastroparesis. Diabetic women with clinical symptoms attributed to diabetic gastroparesis, and documentation of delayed gastric emptying who met the protocol-specified entry criteria were randomized 1:1 in a parallel-group design to IN MCP (10 mg metoclopramide) or placebo administered as a single nasal spray four times daily; 30 minutes before meals and at bedtime for a total of four weeks. Eligible patients received a dose of IN MCP or placebo 30 minutes before meals and at bedtime daily.
Diabetic women with clinical symptoms attributed to diabetic gastroparesis and documentation of delayed gastric emptying who met the protocol-specified entry criteria were randomized to Metoclopramide Nasal Spray 10 mg or placebo administered as a single intranasal spray four (4) times daily; 30 minutes before meals and at bedtime for a total of four (4) weeks.

[4] = Week 1, 10 mg intranasal four times daily, N = 52
[5] = Week 2, 10 mg intranasal four times daily, N = 52
[6] = Week 3, 10 mg intranasal four times daily, N = 52
[7] = Week 4, 10 mg intranasal four times daily, N = 52
[8] = 10 mg intranasal four times daily, 4 weeks, N = 102

For `CCN(CC)CCNC(=O)c1cc(Cl)c(N)cc1OC` [IN MCP, 4-amino-5-chloro-N-[2-(diethylamino)ethyl]-2-methoxybenzamide], the “Reports of tardive dyskinesia” value [1] was “no reports of tardive dyskinesia”, the “Mean Change from Baseline in Mean Daily Nausea Score (LSMean from ANCOVA)” value [2, 4] was −0.859 and the “Mean Change from Baseline in Mean Daily Upper Abdominal Pain Score (LSMean from ANCOVA)” value [2, 4] was −0.641. For the same molecule, the “Mean Change from Baseline in Mean Daily Nausea Score (LSMean from ANCOVA)” value [2, 5] was −1.149, the “Mean Change from Baseline in Mean Daily Upper Abdominal Pain Score (LSMean from ANCOVA)” value [2, 5] was −0.990 and the “Mean Change from Baseline in Mean Daily Nausea Score (LSMean from ANCOVA)” value [2, 6] was −1.242. The “Mean Change from Baseline in Mean Daily Upper Abdominal Pain Score (LSMean from ANCOVA)” value [2, 6] was −1.194, the “Mean Change from Baseline in Mean Daily Nausea Score (LSMean from ANCOVA)” value [2, 7] was −1.404 and the “Mean Change from Baseline in Mean Daily Upper Abdominal Pain Score (LSMean from ANCOVA)” value [2, 7] was −1.218. For the same molecule, the “Estimated Mean Change from Baseline in Mean Daily GSA Total Scores (LSMean from ANCOVA)” value (“Estimated Mean Change from Baseline” below) ([2]; ITT, Week 1, 10 mg intranasal four times daily, N = 52) was −0.588, the “Estimated Mean Change from Baseline” value ([2]; ITT, Week 2, 10 mg intranasal four times daily, N = 52) was −0.950 and the “Estimated Mean Change from Baseline” value ([2]; ITT, Week 3, 10 mg intranasal four times daily, N = 52) was −1.096. The “Estimated Mean Change from Baseline” value ([2]; ITT, Week 4, 10 mg intranasal four times daily, N = 52) was −1.220, the “Estimated Mean Change from Baseline” value ([2]; Per Protocol, Week 1, 10 mg intranasal four times daily, N = 38) was −0.623 and the “Estimated Mean Change from Baseline” value ([2]; Per Protocol, Week 2, 10 mg intranasal four times daily, N = 38) was −1.040. For the same molecule, the “Estimated Mean Change from Baseline” value ([2]; Per Protocol, Week 3, 10 mg intranasal four times daily, N = 38) was −1.286, the “Estimated Mean Change from Baseline” value ([2]; Per Protocol, Week 4, 10 mg intranasal four times daily, N = 38) was −1.373 and the “Efficacy versus placebo, change from baseline” value ([2]; all enrolled patients across all severities of disease (205 female patients), 10 mg intranasal q.i.d.) was “no statistically significant change from baseline in efficacy versus placebo”. For the same molecule, the “Efficacy compared to placebo” value ([2]; mild gastroparesis, intranasal, same treatment regimen) was “did not demonstrate statistically significant efficacy”, the “Improvements in nausea and abdominal pain” value ([2]; patient segment with moderate to severe symptoms of gastroparesis, versus placebo) was “clinically and statistically significant improvements” and the “Efficacy versus placebo (post-hoc analysis)” value ([2]; patients who entered the study with moderate to severe gastroparesis, 10 mg intranasal q.i.d.) was “statistically significant efficacy”. The “Treatment-Emergent Adverse Event Epistaxis, number of subjects” value [3, 8] was 1 (1%), the “Treatment-Emergent Adverse Event Epistaxis, percent of subjects” value [3, 8] was 1 (1%) and the “Treatment-Emergent Adverse Event Fatigue, number of subjects” value [3, 8] was 2 (2%). The “Treatment-Emergent Adverse Event Fatigue, percent of subjects” value [3, 8] was 2 (2%), the “Treatment-Emergent Adverse Event Headache, number of subjects” value [3, 8] was 5 (5%) and the “Treatment-Emergent Adverse Event Headache, percent of subjects” value [3, 8] was 5 (5%). The “Treatment-Emergent Adverse Event Nasal discomfort, number of subjects” value [3, 8] was 1 (1%), the “Treatment-Emergent Adverse Event Nasal discomfort, percent of subjects” value [3, 8] was 1 (1%) and the “Central nervous system (CNS) effects that have been associated with oral and parenteral metoclopramide” value ([3]; delivered as a nasal spray) was “no central nervous system (CNS) effects observed”. The Drug-related adverse effects ([3]; intranasal) was “no reported drug-related adverse effects” and the Overall safety results ([3]; nasal spray 10 mg four times daily, 4 weeks) was “no significant adverse effects”.
